Assay [1] addresses T1, Protein farnesyltransferase (Homo sapiens, UniProt P49354+P49356). Kind of assay: Inhibition of recombinant human farnesyltransferase using Dansyl-GCVLS as substrate at 100 uM measured for 15 mins by fluorimetric analysis relative to control. It counts as protein-complex assay.
Assay [2] has as its target T1, Protein farnesyltransferase. Put plainly: Inhibition of recombinant human farnesyltransferase using Dansyl-GCVLS as substrate measured for 15 mins by fluorimetric analysis. In kind it is protein-complex assay.

Structures are written as SMILES.

For the compound `COc1ccc(C(=O)[C-](C=C(C#N)C#N)[n+]2ccc(OC)cc2)cc1`, the inhibition (in general, how much of the control response was suppressed) in assay [1] is 83%. Besides, the IC50 – broadly, the concentration needed to halve the response being measured – in assay [2] amounted to 27.3 µM.
In the case of `CCOC(=O)/C(C#N)=C/[C-](C(=O)c1cc(OC)c(OC)c(OC)c1)[n+]1ccc(N(C)C)cc1`, in assay [1], the inhibition worked out at 73%. The half-maximal inhibitory concentration (IC50) in assay [2] is 48 µM.
As to `Cc1ccc(C(=O)[C-](C=C(C#N)C#N)[n+]2ccc(N(C)C)cc2)cc1`, the inhibition in assay [1] turned out to be 89%. Further, the IC50 in assay [2] was 14.5 µM.
Regarding `COc1cc(C(=O)[C-](C=C(C#N)C#N)[n+]2cc(C)cc(C)c2)cc(OC)c1OC`, the inhibition in assay [1] stood at 82%. Also, the IC50 in assay [2] turned out to be 20.1 µM.
Regarding `COc1ccc(C(=O)[C-](C=C(C#N)C#N)[n+]2ccc(N(C)C)cc2)cc1`, the inhibition in assay [1] was 99%. The concentration for half-maximal inhibition (IC50) in assay [2] is 22.2 µM.
As to `CCOC(=O)/C(C#N)=C/[C-](C(=O)c1ccc(OC)cc1)[n+]1cc(C)cc(C)c1`, in assay [1], the inhibition is 49%.
Regarding `CN(C)c1cc[n+]([C-](C=C(C#N)C#N)C(=O)c2ccccc2)cc1`, the inhibition in assay [1] came to 79%. Also, the half-maximal inhibitory concentration (IC50) in assay [2] is 46.2 µM.
Taken in the same sequence, the figures for `CCOC(=O)/C(C#N)=C/[C-](C(=O)c1ccc(Br)cc1)[n+]1ccc(N(C)C)cc1` were 100% and 36.4 µM.
As for `CN(C)c1cc[n+]([C-](C=C(C#N)C#N)C(=O)N2c3ccccc3Sc3ccccc32)cc1`, the IC50 in assay [2] was found to be 4.67 µM.
Take `CN(C)c1cc[n+]([C-](C=C(C#N)C#N)C(=O)c2ccc(F)cc2)cc1`: in assay [1], the inhibition turned out to be 81%. In addition, the IC50 in assay [2] is 23.6 µM.
Taken in the same sequence, the figures for `CCOC(=O)/C(C#N)=C/[C-](C(=O)c1ccccc1)[n+]1ccc(N(C)C)cc1` were 68% and 30.9 µM.
With `CN(C)c1cc[n+]([C-](C=C(C#N)C#N)C(=O)c2ccc([N+](=O)[O-])cc2)cc1`, the inhibition in assay [1] was 88%. Also, the concentration for half-maximal inhibition (IC50) in assay [2] worked out at 28.2 µM.
Taken in the same sequence, the figures for `CCOC(=O)/C(C#N)=C/[C-](C(=O)c1ccc(F)cc1)[n+]1ccc(N(C)C)cc1` were 64% and 62.3 µM.
Regarding `CCOC(=O)/C(C#N)=C/[C-](C(=O)c1ccc(OC)cc1)[n+]1ccc(N(C)C)cc1`, the inhibition in assay [1] was 64%. The IC50 in assay [2] was found to be 62.7 µM.
For the compound `CCOC(=O)/C(C#N)=C/[C-](C(=O)c1ccc2c(c1)NC(=O)CO2)[n+]1ccc(N(C)C)cc1`, the inhibition in assay [1] was 62%. Further, in assay [2], the half-maximal inhibitory concentration (IC50) came out at 55.2 µM.
Taken in the same sequence, the figures for `COc1cc[n+]([C-](C=C(C#N)C#N)C(=O)c2ccc(OC)c(OC)c2)cc1` were 77% and 31.4 µM.
Taken in the same sequence, the figures for `COc1ccc(C(=O)[C-](C=C(C#N)C#N)[n+]2cc(C)cc(C)c2)cc1` were 75% and 27.4 µM.
In the case of `CN(C)c1cc[n+]([C-](C=C(C#N)C#N)C(=O)c2ccc3c(c2)NC(=O)CO3)cc1`, the inhibition in assay [1] is 92%. Further, the IC50 in assay [2] worked out at 25.8 µM.
For the compound `CCOC(=O)/C(C#N)=C/[C-](C(=O)c1ccc(OC)c(OC)c1)[n+]1ccc(OC)cc1`, the inhibition in assay [1] came to 88%. In addition, the 50% inhibitory concentration (IC50) in assay [2] turned out to be 20.8 µM.
Consider `CCOC(=O)/C(C#N)=C/[C-](C(=O)c1ccc(OC)cc1)[n+]1ccc(OC)cc1`, for which the inhibition in assay [1] came to 51%.
As for `CN(C)c1cc[n+]([C-](C=C(C#N)C#N)C(=O)c2ccc(C#N)cc2)cc1`, the inhibition in assay [1] worked out at 77%. The IC50 in assay [2] amounted to 23.9 µM.
For `CCOC(=O)/C(C#N)=C/[C-](C(=O)c1ccc(C#N)cc1)[n+]1ccc(N(C)C)cc1`, the inhibition in assay [1] came to 69%. For the same compound, in assay [2], the IC50 worked out at 46.2 µM.
Regarding `Cc1cc[n+]([C-](C=C(C#N)C#N)C(=O)c2ccccc2)cc1`, the inhibition in assay [1] amounted to 29%.
On the same count and under the same terms, to `CCOC(=O)/C(C#N)=C/[C-](C(=O)c1ccccc1)[n+]1ccc(C)cc1` belongs 45%.
Consider `CCOC(=O)/C(C#N)=C/[C-](C(=O)c1cc(OC)c(OC)c(OC)c1)[n+]1cc(C)cc(C)c1`, for which the inhibition in assay [1] is 90%. In addition, in assay [2], the IC50 turned out to be 43.5 µM.
Consider `CN(C)c1cc[n+]([C-](C=C(C#N)C#N)C(=O)c2ccc(Cl)cc2)cc1`, for which the inhibition in assay [1] was found to be 95%. In addition, the IC50 in assay [2] amounted to 12.5 µM.
Turning to `COc1cc(C(=O)[C-](C=C(C#N)C#N)[n+]2ccc(N(C)C)cc2)cc(OC)c1OC`, the inhibition in assay [1] was 93%. In addition, in assay [2], the IC50 worked out at 15.6 µM.
For `CN(C)c1cc[n+]([C-](C=C(C#N)C#N)C(=O)c2ccc(Br)cc2)cc1`, the inhibition in assay [1] stood at 91%. In addition, the 50% inhibitory concentration (IC50) in assay [2] was 19.7 µM.
Taken in the same sequence, the figures for `CCOC(=O)/C(C#N)=C/[C-](C(=O)c1ccc(Cl)cc1)[n+]1ccc(N(C)C)cc1` were 100% and 31.9 µM.
On to `CCOC(=O)/C(C#N)=C/[C-](C(=O)c1ccc(C)cc1)[n+]1ccc(N(C)C)cc1`, for which the inhibition in assay [1] was determined as 65%. For the same compound, the IC50 in assay [2] turned out to be 43.6 µM.

The record behind these values is ChEMBL document CHEMBL2434887, “Synthesis and biological evaluation of a new series of N-ylides as protein farnesyltransferase inhibitors” (Bioorg Med Chem Lett, 2013).
